From patent US20230416247A1, “DRUG-LIKE MOLECULES AND METHODS FOR THE THERAPEUTIC TARGETING OF MICRORNA-21” (University of Washington, priority 2020, published 2023)
pKd: −log10 of the molar value. Like-named read-outs stand apart in the source and are kept apart here.

What was measured:
[1] = molecular target: pre-miR21; assay: 1D 1H NMR ligand-detect titration of compounds with pre-miR21 RNA; format: binding, human
Experimental: FIG. 6 compares the binding of representative compounds of the invention (see FIG. 5) to pre-miR21. 1D ^1H NMR ligand-detect titrations of compounds, generated by titrating in increasing concentrations of RNA into a solution containing 100 μM of the relevant compound in buffer containing 50 mM deuterated Tris at pH 6.5, as well as 250 mM NaCl, 50 mM KCl and 2 mM MgCl2. As increasing amounts of compounds are bound to the RNA in the course of the titration, the line width of the NMR signal increases, and the NMR peak height decreases. The fraction of compound bound can be calculated from the decrease in […] relative to an internal standard. Saturation of the curves to a value of 1 indicates the predominant presence of a single site with high binding affinity. Approximate binding constants can be calculated by fitting the data points to a binding isotherm. For reference, the data fit for compound −0052 corresponds to a Kd=200 nM, while compound −0045 corresponds to a Kd=600 nM.
The compounds show a strong pre-miR21 binding capacity.
RNA Transcription. All RNAs for ligand screening and structural or biochemical work were prepared in house using in vitro transcription on a large scale (typically 10 mL). RNA transcription and purification protocols used purified DNA oligonucleotide templates (IDT) and T7 RNA polymerase. Briefly, 1 mL of 8 μM TOP DNA (5′-CTATAGTGAGTCGTATTA-3′ (SEQ ID NO: 1)), corresponding to the phage T7 RNA polymerase promoter region, was annealed to 80 μL of 100 μM template sequences with 13 mM MgCl2, heated to 95° C. for […] then allowed to anneal to room temperature over 20 min. The annealing mixture was incubated with 5 mM of each of the four NTPs (ATP, GTP, UTP and CTP, from Sigma), transcription buffer, 8% PEG-8000 and 35 mM magnesium chloride with 0.4 mg/mL T7 RNA polymerase expressed and purified using established methods. All RNA samples are purified from crude transcriptions by 20% denaturing polyacrylamide gel electrophoresis (PAGE), electroeluted and concentrated by ethanol precipitation. The samples are re-dissolved in 12 mL of high salt wash (700 mM NaCl, 200 mM KCl, in 10 mM potassium phosphate at pH 6.5, with 10 μM EDTA to chelate any divalent ions), concentrated using Centriprep conical concentrators ([…] MWC, Millipore). The RNA was then slowly exchanged into low salt storage buffer (10 mM potassium phosphate at pH 6.5, with 10 mM NaCl and 10 μM EDTA). Prior to NMR experiments, all RNA samples were finally desalted using NAP-10 gravity columns, lyophilized and re-dissolved in ‘screening buffer’ or ‘structure buffer’ (see below), then annealed by heating for 4 min to 90° C. and snap cooling at −20° C.

[2] = system: gastric (AGS) cancer cell line; assay: MTS proliferation assay, AGS; format: cell-based, human; conditions: for viability (anti-proliferative activity), MTS: as a function of time, triplicate
From the text: FIGS. 10A-10F compare anti-proliferative activity of 10 nmoles of compounds −0045 and −0052 against gastric (AGS) (FIGS. 10B and 10C, respectively) and pancreatic (ASPC1) (FIGS. 10E and 10F, respectively) cancer cell lines, as measured as a function of time and compared to palbociclib (−000) (FIGS. 10A-AGS; and 10D-ASPC1) using standard MTS assays in the indicated cell lines; results were in triplicate with reported experimental uncertainty.
FIGS. 11A-11F compare anti-proliferative activity of 5 nmoles of compounds −0045 and −0052 against gastric (AGS) (FIGS. 11B and 11C, respectively) and pancreatic (ASPC1) (FIGS. 11E and 11F, respectively) cancer cell lines, as measured as a function of time and compared to palbociclib (−000) (FIGS. 11A-AGS; and 11D-ASPC1), using standard MTS assays in the indicated cell lines; results were in triplicate with reported experimental uncertainty.
The anti-proliferative activity of compounds −0045 and −0052 in two cell lines characterized by high levels of miR-21 (gastric adenocarcinoma (AGS) and pancreatic (ASPC1) cancer origin) was determined. These experiments were conducted in a double-blind format, without knowledge of the identity or binding activity of the compounds, to avoid any unintentional bias. […] Viability in the presence of both palbociclib and compound −0052 is decreased after approximately 72-96 hrs to a statistically significant extent (data points marked with asterisks are statistically significant).
Cell line maintenance. Using the Cancer Cell Line Encyclopedia (CCLE), in-house cancer cell lines were screened to identify cancer and tissue types with varying levels of miR-21 expression. Experiments were performed using the human-derived cell lines AGS (gastric cancer) and AsPC-1 (pancreatic cancer). Cell lines were obtained from the American Type Culture Collection and maintained per instructions from the supplier. AGS were cultured in F12K medium supplemented with 10% FBS. AsPC-1 were cultured in RPMI, with 10% FBS added. All cells were kept at 37° C. in a humidified atmosphere of 5% CO2 and underwent regular mycoplasma testing. All experiments were conducted when cells were 70-80% confluent.
Proliferation assay. The impact of the compound on cellular proliferation was assessed, with 5,000 cells in each cell line seeded in replicates of 6 in a 96 well plate and treated with DMSO or with compounds. After 48 hours, cells were treated with the MTS reagent and optical density was read to generate dose-response curves.

[3] = 100 μM compound, 50 mM deuterated Tris pH 6.5, 250 mM NaCl, 50 mM KCl, 2 mM MgCl2, approximate, read-out: Kd (fit of NMR titration data to binding isotherm)
[4] = estimated, FIG. 6, read-out: KD for pre-miR21

SMILES	pKd [1, 3]	pKd [1, 4]	viability (anti-proliferative activity), MTS ([2]; 5 nmoles of compound)	viability (anti-proliferative activity), MTS ([2]; 10 nmoles of compound)	cell killing activity, MTS over 6 days ([2]; both concentrations tested (10 and 5 nmols), double-blind)
O=c1[nH]c(Nc2ccc(N3CCNCC3)cn2)nc2cnccc12 [Compound 30]	6.70	6.70	reduce the viability of both cell lines to a statistically significant extent	reduce the viability of both cell lines to a statistically significant extent	Cell killing activity
O=c1[nH]c(Nc2ccc(N3CCNCC3)cn2)nc2cccnc12 [Compound 25]	6.22	6.22	does not	does not	
